Earlier results, collected in patent US11160861B2, “Adjuvanting systems and water-free vaccine compositions comprising a polyI:C polynucleotide adjuvant and a lipid-based adjuvant” (priority 2015, dated 2021).

How the values were obtained:
[1] = variety of animal models and Phase I clinical trial in humans (Moyle 2008; Wiedemann 1991)
murine DCs = settings: in vitro stimulation of murine DCs, small amounts of adjuvant relative to other TLR agonists (Welters 2007)

In the case of `CCCCCCCCCCCCCCCC(=O)N[C@@H](CSC[C@@H](COC(=O)CCCCCCCCCCCCCCC)OC(=O)CCCCCCCCCCCCCCC)C(=O)O` [Pam3Cys, tripalmitoyl-S-glyceryl-cysteine], the Side effects [1] is listed as “no reported side effects” and the “Production of pro-inflammatory cytokines IL-12p40, IL-6 and TNFα” value (murine DCs) is listed as “high levels”.
